Data published in patent US7304090B2, “Inhibition of the cystic fibrosis transmembrane conductance regulator chloride channel” (The University of Bristol, priority 2000, dated 2007).
Blank lines part the entries; values can stand above or below the compound they belong to.

Legend:
wild-type human CFTR = biological target: T1, wild-type human CFTR (Homo sapiens, UniProt P13569); assay: CFTR Cl− channels recorded in excised inside-out membrane patches from C127 cells (patch-clamp); assay type: biochemical
T1 construct: expressed in transfected cells
T1 sequence (P13569 whole entry): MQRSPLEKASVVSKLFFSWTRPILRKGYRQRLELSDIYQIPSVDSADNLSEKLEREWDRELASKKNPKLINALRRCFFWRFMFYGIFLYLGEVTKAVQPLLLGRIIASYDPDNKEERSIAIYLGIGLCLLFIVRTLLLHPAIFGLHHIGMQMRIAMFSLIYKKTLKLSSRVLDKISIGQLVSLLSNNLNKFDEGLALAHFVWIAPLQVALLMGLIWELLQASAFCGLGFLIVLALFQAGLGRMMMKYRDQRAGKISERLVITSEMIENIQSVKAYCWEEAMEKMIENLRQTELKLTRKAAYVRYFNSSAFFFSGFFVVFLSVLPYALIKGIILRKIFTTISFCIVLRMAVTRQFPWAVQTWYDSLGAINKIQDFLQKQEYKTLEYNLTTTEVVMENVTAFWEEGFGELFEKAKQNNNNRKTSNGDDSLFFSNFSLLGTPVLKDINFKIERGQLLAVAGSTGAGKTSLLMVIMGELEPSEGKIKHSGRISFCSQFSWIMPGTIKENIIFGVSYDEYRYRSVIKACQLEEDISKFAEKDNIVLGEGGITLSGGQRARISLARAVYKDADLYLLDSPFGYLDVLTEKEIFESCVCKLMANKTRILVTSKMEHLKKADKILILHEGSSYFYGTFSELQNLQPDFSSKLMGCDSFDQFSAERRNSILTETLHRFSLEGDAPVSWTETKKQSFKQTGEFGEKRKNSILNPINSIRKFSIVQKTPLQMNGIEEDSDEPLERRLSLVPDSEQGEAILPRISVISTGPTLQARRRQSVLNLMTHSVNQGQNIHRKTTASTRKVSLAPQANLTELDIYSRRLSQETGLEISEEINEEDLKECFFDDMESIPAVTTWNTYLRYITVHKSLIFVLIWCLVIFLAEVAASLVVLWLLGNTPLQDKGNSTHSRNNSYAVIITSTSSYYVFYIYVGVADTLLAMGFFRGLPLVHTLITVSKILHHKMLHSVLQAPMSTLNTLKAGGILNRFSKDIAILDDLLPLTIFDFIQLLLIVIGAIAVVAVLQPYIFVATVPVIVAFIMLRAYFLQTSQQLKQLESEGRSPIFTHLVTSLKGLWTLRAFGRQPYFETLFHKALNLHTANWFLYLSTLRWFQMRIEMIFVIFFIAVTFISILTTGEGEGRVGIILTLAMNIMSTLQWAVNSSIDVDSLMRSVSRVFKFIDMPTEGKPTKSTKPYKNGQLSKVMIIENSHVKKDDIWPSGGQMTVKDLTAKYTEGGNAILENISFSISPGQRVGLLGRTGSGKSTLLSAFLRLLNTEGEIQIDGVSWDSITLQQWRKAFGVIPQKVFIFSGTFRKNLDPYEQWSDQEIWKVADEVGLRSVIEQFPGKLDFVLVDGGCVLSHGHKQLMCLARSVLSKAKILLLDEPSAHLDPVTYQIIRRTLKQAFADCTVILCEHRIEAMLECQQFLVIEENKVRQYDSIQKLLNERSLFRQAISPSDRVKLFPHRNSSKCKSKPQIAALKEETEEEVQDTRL
Method: For electrophysiological experiments, we used mouse mammary epithelial cells (C127 cells) stably expressing wild-type human CFTR (12). C127 cells expressing wild-type CFTR were cultured as previously described (10). Cells were seeded onto glass coverslips and used within 48 h.
The established sign convention was used throughout; currents produced by positive charge moving from intra- to extracellular solutions (anions moving in the opposite direction) are shown as positive currents.
[…] […] All experiments were conducted at 37° C.
PKA was maintained in the intracellular solution for the duration of experiments. Unless otherwise stated, voltage was −50 mV.
In time course studies, each point is the average current for a 4 s period with data points collected continuously; no data were collected while solutions were changed. Average current (I) for a specific intervention was determined as the average of all the data points collected during the intervention. […] Mean data were fitted to a linear form of equation (1) using linear least-squares regression to yield Ki and n values.
To measure single-channel current amplitude (i), Gaussian distributions were fitted to current amplitude histograms. For open probability (Po) and kinetic analyses, lists of open and closed times were created using a half-amplitude crossing criterion for event detection. Transitions <1 ms in duration were excluded from the analyses. Po was calculated using the equation: Po=(T1+T2+ . . . +TN)/(NTtot), (2) where N is the number of channels; Ttot is the total time analysed, and T1 is the time that one or more channels are open, T2 is the time two or more channels are open and so on. Only membrane patches that contained a single active channel were used for single-channel kinetic analyses.
To investigate whether inhibition of CFTR by fluorescein derivatives was voltage dependent, we used voltage ramp protocols. Macroscopic current-voltage (I-V) relationships were obtained in the absence and presence of fluorescein derivatives by averaging currents generated by 15-30 ramps of voltage each of 2 s duration; holding voltage was −50 mV. Basal currents recorded in the absence of PKA and ATP were subtracted from those recorded in the absence and presence of fluorescein derivatives to determine the effect of these agents on CFTR Cl^− currents.

Type I MDCK cells = assay: Proliferation of MDCK cells (cell counting); assay type: cell-based, canine
Method: (§1) For cyst growth and cell proliferation experiments, we used Type I Madin-Darby canine kidney (MDCK) cells. We chose Type I MDCK cells because they form cysts when grown in collagen gels in the presence of cAMP agonists (26) and because they express the CFTR Cl^− channel (27). MDCK cells were cultured in MDCK media (a 1:1 mixture of Dulbecco's Modified Eagle Medium (DMEM) and Ham's F-12 nutrient medium supplemented with 100 U ml^−1 penicillin, and 100 μg ml^−1 streptomycin and either 10% fetal bovine serum (FBS; cyst growth) or 5% FBS and 1% insulin-transferrin-selenium-X (ITS-X) supplement (cell proliferation); all from Life Technologies Ltd, Paisley, UK) at 37° C. in a humidified atmosphere of 5% CO2.
To test the effect of CFTR modulators on the proliferation of MDCK cells, we used Type I MDCK cells grown in media containing 5% FBS and 1% ITS-X supplement. On day −1, MDCK cells were seeded at 7.5×10^4 cells ml^−1 in 35 mm dishes containing MDCK media with 1% FBS and 1% ITS-X supplement. On day 0, the concentration of FBS was reduced further to 0.01% and CFTR modulators added to the MDCK media. MDCK media containing CFTR modulators was changed every 2 days for a total period of 6 days. To determine the number of cells per 35 mm dish, Type I MDCK cells were harvested using trypsin (0.25% wt/vol), centrifuged at 1200 rpm for 5 min and resuspended in 1 ml of MDCK media before counting using a haemocytometer.

[1] = tested on: Type I Madin-Darby canine kidney (MDCK) cells; assay: Cyst growth of MDCK cells in collagen gels with cAMP agonists; assay type: cell-based; conditions: for cyst volume: day 21 vs day 12; for size of cysts (phase-contrast): days 12 to 21
Method: as §1
To grow cysts, MDCK cells were cultured in collagen gels using a modification of the method of Grantham et al. (26). Cells were trypsinized with 0.25% (wt/vol) trypsin for 30 minutes at 37° C., diluted with MDCK media containing 10% FBS to form a suspension of between 1-3×10^4 cells ml^−1, and aliquoted into individual wells of a 24-well plate (0.1 ml per well). Each well contained 0.4 ml of ice-cold Vitrogen (3.0 mg ml^−1 collagen; Cohesion Technologies Inc., Palo Alto, USA) supplemented with 10% (vol/vol) 10× minimum essential medium, 10 mM N-[2-hydroxyethyl]piperazine-N′-[2-ethanesulphonic acid] (Hepes), 27 mM NaHCO3, 100 U ml^−1 penicillin, and 100 μg ml^−1 streptomycin, and adjusted to pH 7.4 with NaOH. The 24-well plate was gently agitated to distribute cells throughout the Vitrogen and incubated in a water bath at 37° C. for 90 minutes to promote gelation of the Vitrogen.
After gelation, 1.5 ml MDCK media containing 10% FBS was added to each well of the 24-well plate. To promote cyst growth, we added cAMP agonists (forskolin (10 μM), 3-isobutyl-1-methylxanthine (IBMX; 100 μM), and 8-(4-chlorophenylthio) adenosine 3′:5′-cyclic monophosphate (CPT-cAMP; 500 μM)) to the MDCK media. Plates were maintained at 37° C. in a humidified atmosphere of 5% CO2 and the MDCK media containing cAMP agonists changed every three days.
Twelve days after seeding collagen gels with MDCK cells, cysts were readily detected at ×1000 magnification using an inverted microscope with phase contrast optics (Leica, model DMIL, Milton Keynes, UK). To test the effect of CFTR modulators on cyst growth, drugs were added to MDCK media in the continued presence of cAMP agonists. MDCK media containing cAMP agonists and CFTR modulators was changed every 3 days for a total period of 9 days. Photographs of individual cysts were taken before the addition of CFTR modulators and at three day intervals over the duration of the experiment. To identify individual cysts, each cyst was assigned a unique reference number using a grid placed below the 24-well plate.
The diameter of cysts was measured directly from photographs of cysts using images that had been magnified by identical amounts. By assuming that cysts are spherical in shape, we calculated cyst volume ( 4/3·π·r^3).

Compound: O=[N+]([O-])c1ccc(C=Cc2ccc([N+](=O)[O-])cc2S(=O)(=O)O)c(S(=O)(=O)O)c1 [DIDS, 4,4′-dinitrostilbene-2,2′-disulphonic acid]
effect on activity of CFTR (wild-type human CFTR; 200 μM, added to the intracellular side): potently inhibited
cell growth (number of cells), day 0 to 6 (Type I MDCK cells; 200 μM): exception
cyst volume ([1]; 200 μM, P>0.5): exception
size of cysts (phase-contrast) ([1]; 200 μM): without effect on cyst growth

Compound: O=C(O)c1cc([N+](=O)[O-])ccc1NCCCc1ccccc1 [NPPB, 5-nitro-2-(3-phenylpropylamino)-benzoic acid]
inhibition of cell growth in the presence of cAMP agonists (Type I MDCK cells): unaffected by cAMP agonists
rank order of prevention of cell growth (Type I MDCK cells): ouabain (1 μM)=phloxine B (40 μM)=genistein (100 μM)=NPPB (400 μM)>glibenclamide (100 μM)
cell growth (number of cells), day 0 to 6 (Type I MDCK cells; 400 μM): prevented cell growth
rank order of decrease of cyst volume [1]: glibenclamide (100 μM)≧ouabain (1 μM)≧NPPB (400 μM)≧genistein (100 μM)>bumetanide
cyst volume ([1]; 400 μM): decreased cyst volume
size of cysts (phase-contrast) ([1]; 400 μM): visible decrease in the size of cysts

reversibility of CFTR inhibition (wild-type human CFTR): irreversible
stimulation of CFTR channel activity (wild-type human CFTR; concentration-response, FIG. 3): stimulated channel activity
Compound: O=C1OC2(c3cc(I)c(O)c(I)c3Oc3c2cc(I)c(O)c3I)c2c(Cl)c(Cl)c(Cl)c(Cl)c21 [bengal rose B]
potency of CFTR inhibition compared with glibenclamide (wild-type human CFTR): potency greater than or equal to that of glibenclamide
single-channel activity (i and/or Po) (wild-type human CFTR; 10 μM): never able to resolve discrete channel openings
rank order of potency for CFTR inhibition (wild-type human CFTR; concentration-response, FIG. 3): bengal rose B>phloxine B>eosin Y≧tetrachlorofluorescein>>fluorescein
cell growth (number of cells), day 0 to 6 (Type I MDCK cells; 5 μM): inhibited the proliferation

Compound: CCCCNc1cc(C(=O)O)cc(S(N)(=O)=O)c1Oc1ccccc1 [bumetanide]
cell growth (number of cells), day 0 to 6 (Type I MDCK cells; 100 μM): exception
rank order of decrease of cyst volume [1]: glibenclamide (100 μM)≧ouabain (1 μM)≧NPPB (400 μM)≧genistein (100 μM)>bumetanide
cyst volume ([1]; 100 μM): decreased cyst volume

Compound: O=C1OC2(c3ccc(O)cc3Oc3cc(O)ccc32)c2ccccc21 [fluorescein]
rank order of potency for CFTR inhibition (wild-type human CFTR; concentration-response, FIG. 3): bengal rose B>phloxine B>eosin Y≧tetrachlorofluorescein>>fluorescein

Compound: O=c1c(-c2ccc(O)cc2)coc2cc(O)cc(O)c12 [genistein]
inhibition of cell growth in the presence of cAMP agonists (Type I MDCK cells): unaffected by cAMP agonists
rank order of prevention of cell growth (Type I MDCK cells): ouabain (1 μM)=phloxine B (40 μM)=genistein (100 μM)=NPPB (400 μM)>glibenclamide (100 μM)
cell growth (number of cells), day 0 to 6 (Type I MDCK cells; 100 μM): prevented cell growth
rank order of decrease of cyst volume [1]: glibenclamide (100 μM)≧ouabain (1 μM)≧NPPB (400 μM)≧genistein (100 μM)>bumetanide
cyst volume ([1]; 100 μM): decreased cyst volume

effect on channel block by phloxine B (20 μM) (wild-type human CFTR; glibenclamide 50 μM): potentiated channel block
Compound: COc1ccc(Cl)cc1C(=O)NCCc1ccc(S(=O)(=O)NC(=O)NC2CCCCC2)cc1 [glibenclamide]
inhibition of cell growth in the presence of cAMP agonists (Type I MDCK cells): unaffected by cAMP agonists
rank order of prevention of cell growth (Type I MDCK cells): ouabain (1 μM)=phloxine B (40 μM)=genistein (100 μM)=NPPB (400 μM)>glibenclamide (100 μM)
cell growth (number of cells), day 0 to 6 (Type I MDCK cells; 100 μM): prevented cell growth
rank order of decrease of cyst volume [1]: glibenclamide (100 μM)≧ouabain (1 μM)≧NPPB (400 μM)≧genistein (100 μM)>bumetanide
cyst volume ([1]; 100 μM): decreased cyst volume
size of cysts (phase-contrast) ([1]; 100 μM): visible decrease in the size of cysts

potency of CFTR inhibition compared with glibenclamide (wild-type human CFTR): less potently than glibenclamide
reversibility of CFTR inhibition (wild-type human CFTR): partially reversible
open probability (Po) (wild-type human CFTR; 100 μM): decreasing
single-channel current amplitude (i) (wild-type human CFTR; 100 μM): decreasing
channel block at positive voltages (wild-type human CFTR; 100 μM, symmetrical 147 mM Cl−): relieved
effect on CFTR Cl− currents at negative voltages (wild-type human CFTR; 100 μM, symmetrical 147 mM Cl−): decreased CFTR Cl^− currents
n (slope factor, Hill coefficient) of CFTR inhibition (wild-type human CFTR; ATP 0.3 mM, PKA 75 nM, −50 mV): 0.7
Ki (wild-type human CFTR; ATP 0.3 mM, PKA 75 nM, −50 mV, 37° C., drug in intracellular solution, read-out: Ki (drug concentration causing half-maximal inhibition of CFTR Cl− current, Hill plot)): 58 µM
voltage-dependence of CFTR inhibition (wild-type human CFTR; voltage ramp ±100 mV, symmetrical 147 mM Cl−, ATP 1 mM): voltage-dependent
Compound: O=C(O)c1c(Cl)c(Cl)c(Cl)c(Cl)c1-c1c2ccc(=O)cc-2oc2cc(O)ccc12 [tetrachlorofluorescein]
rank order of potency for CFTR inhibition (wild-type human CFTR; concentration-response, FIG. 3): bengal rose B>phloxine B>eosin Y≧tetrachlorofluorescein>>fluorescein
cell growth (number of cells), day 0 to 6 (Type I MDCK cells; 200 μM): inhibited the proliferation
